According to patent US8017786B2, “Substituted β-phenyl-α-hydroxy-propanoic acid, synthesis method and use thereof” (Northwest University, priority 2006, dated 2011):

Tested on: anesthetized rats
Experiment: Blood pressure and left ventricular function of anesthetized rats
Assay type: in vivo, rat
Parameters: contractive pressure, change ratio: unit not given here
Experimental: All data were input into PowerLab/8Sp data acquisition and processing system via RM-6000 multi-channel polygraph, and recorded, analyzed and processed by PowerLab/8Sp.
The abdomen was opened 1.5 cm below xiphoid bone to isolate duodenum, a small incision was formed on the duodenum away from blood vessels by ophthalmic scissors, a catheter was inserted and the incision was fixed by suture for administration. After the end of operation and a further waiting period of 30 min, normal data were recorded once the indexes to be monitored were stable.
Test drugs were duodenally administered via the catheter, and the indexes were monitored 5, 15, 30, 60, 90 and 120 min after the administration. The change ratios of the indexes were calculated in accordance with the following formula, and were used for statistic analysis among groups.

[1] = 4.5 mg/kg duodenal, 5 min after administration
[2] = 4.5 mg/kg duodenal, 15 min after administration
[3] = 4.5 mg/kg duodenal, 30 min after administration
[4] = 4.5 mg/kg duodenal, 60 min after administration
[5] = 4.5 mg/kg duodenal, 90 min after administration
[6] = 4.5 mg/kg duodenal, 120 min after administration
[7] = 4.5 mg/kg duodenal, before administration
[8] = 9 mg/kg duodenal, 5 min after administration
[9] = 9 mg/kg duodenal, 15 min after administration
[10] = 9 mg/kg duodenal, 30 min after administration
[11] = 9 mg/kg duodenal, 60 min after administration

CC1(C)C2CCC1(C)C(OC(=O)C(O)Cc1ccc(O)c(O)c1)C2 (stereo not drawn) [bornyl salvianate ester, bornyl β-(3,4-dihydroxylphenyl)-α-hydroxylpropionate ester]
mean arterial pressure, systolic pressure and diastolic pressure (in words) (4.5 mg/kg): exhibited no significant change
change-rate of left intraventricular pressure MAX [1]: 5429.3 ± 1279.7 mmHg/s
change-rate of left intraventricular pressure MAX, change ratio [1]: 0.4 ± 11.0
change-rate of left intraventricular pressure, -MAX [1]: −4152.9 ± 764.8 mm/Hg/s
change-rate of left intraventricular pressure, -MAX, change ratio [1]: −2.2 ± 8.2
contractive pressure [1]: 126.54 ± 25.94 mmHg
contractive pressure, change ratio [1]: −1.96 ± 11.16
diastolic pressure [1]: 68.68 ± 15.82 mmHg
diastolic pressure, change ratio [1]: −0.08 ± 12.81
heart rate [1]: 337.41 ± 47.67 beat/min
heart rate, change ratio [1]: 2.49 ± 7.18
left intraventricular pressure [1]: 128.67 ± 18.24 mmHg
left intraventricular pressure, change ratio [1]: 0.38 ± 6.72
mean arterial pressure [1]: 87.97 ± 18.89 mmHg
mean arterial pressure, change ratio [1]: −1.01 ± 11.95
change-rate of left intraventricular pressure MAX [2]: 5435.9 ± 1216.6 mmHg/s
change-rate of left intraventricular pressure MAX, change ratio [2]: 0.9 ± 11.4
change-rate of left intraventricular pressure, -MAX [2]: −4141.1 ± 755.6 mm/Hg/s
change-rate of left intraventricular pressure, -MAX, change ratio [2]: −2.4 ± 9.1
contractive pressure [2]: 128.80 ± 24.39 mmHg
contractive pressure, change ratio [2]: −0.05 ± 10.13
diastolic pressure [2]: 70.87 ± 15.08 mmHg
diastolic pressure, change ratio [2]: 3.38 ± 12.17
heart rate [2]: 347.56 ± 47.18 beat/min
heart rate, change ratio [2]: 5.67 ± 7.58
left intraventricular pressure [2]: 130.13 ± 18.12 mmHg
left intraventricular pressure, change ratio [2]: 1.51 ± 6.25
mean arterial pressure [2]: 90.18 ± 17.91 mmHg
mean arterial pressure, change ratio [2]: 1.66 ± 11.07
change-rate of left intraventricular pressure MAX [3]: 5408.8 ± 1352.2 mmHg/s
change-rate of left intraventricular pressure MAX, change ratio [3]: 0.1 ± 13.5
change-rate of left intraventricular pressure, -MAX [3]: −4090.5 ± 704.6 mm/Hg/s
change-rate of left intraventricular pressure, -MAX, change ratio [3]: −3.6 ± 6.5
contractive pressure [3]: 129.90 ± 23.86 mmHg
contractive pressure, change ratio [3]: 0.93 ± 11.47
diastolic pressure [3]: 71.78 ± 15.67 mmHg
diastolic pressure, change ratio [3]: 4.78 ± 14.39
heart rate [3]: 348.91 ± 52.11 beat/min
heart rate, change ratio [3]: 5.97 ± 9.72
left intraventricular pressure [3]: 129.67 ± 17.48 mmHg
left intraventricular pressure, change ratio [3]: 1.22 ± 7.07
mean arterial pressure [3]: 91.15 ± 17.95 mmHg
mean arterial pressure, change ratio [3]: 2.91 ± 12.81
change-rate of left intraventricular pressure MAX [4]: 5760.1 ± 1393.5 mmHg/s
change-rate of left intraventricular pressure MAX, change ratio [4]: 7.1 ± 18.3
change-rate of left intraventricular pressure, -MAX [4]: −4146.8 ± 820.5 mm/Hg/s
change-rate of left intraventricular pressure, -MAX, change ratio [4]: −2.4 ± 10.2
contractive pressure [4]: 135.97 ± 22.80 mmHg
contractive pressure, change ratio [4]: 5.64 ± 8.91
diastolic pressure [4]: 76.78 ± 14.34 mmHg
diastolic pressure, change ratio [4]: 12.13 ± 9.39
heart rate [4]: 365.43 ± 32.77 beat/min
heart rate, change ratio [4]: 12.05 ± 12.32
left intraventricular pressure [4]: 134.39 ± 19.12 mmHg
left intraventricular pressure, change ratio [4]: 4.73 ± 6.55
mean arterial pressure [4]: 96.51 ± 16.69 mmHg
mean arterial pressure, change ratio [4]: 8.95 ± 8.95
change-rate of left intraventricular pressure MAX [5]: 5706.1 ± 1390.6 mmHg/s
change-rate of left intraventricular pressure MAX, change ratio [5]: 7.6 ± 26.1
change-rate of left intraventricular pressure, -MAX [5]: −4156.0 ± 947.7 mm/Hg/s
change-rate of left intraventricular pressure, -MAX, change ratio [5]: −2.2 ± 15.9
contractive pressure [5]: 131.95 ± 25.10 mmHg
contractive pressure, change ratio [5]: 2.56 ± 13.11
diastolic pressure [5]: 74.71 ± 18.13 mmHg
diastolic pressure, change ratio [5]: 8.47 ± 17.66
heart rate [5]: 369.71 ± 35.54 beat/min
heart rate, change ratio [5]: 13.31 ± 13.05
left intraventricular pressure [5]: 130.91 ± 17.22 mmHg
left intraventricular pressure, change ratio [5]: 2.39 ± 9.41
mean arterial pressure [5]: 93.79 ± 20.11 mmHg
mean arterial pressure, change ratio [5]: 5.62 ± 15.30
change-rate of left intraventricular pressure MAX [6]: 5512.7 ± 1250.1 mmHg/s
change-rate of left intraventricular pressure MAX, change ratio [6]: 3.6 ± 20.4
change-rate of left intraventricular pressure, -MAX [6]: −3995.2 ± 837.9 mm/Hg/s
change-rate of left intraventricular pressure, -MAX, change ratio [6]: −5.6 ± 14.3
contractive pressure [6]: 128.62 ± 28.30 mmHg
contractive pressure, change ratio [6]: −0.49 ± 12.28
diastolic pressure [6]: 72.46 ± 20.46 mmHg
diastolic pressure, change ratio [6]: 4.39 ± 16.80
heart rate [6]: 360.36 ± 51.93 beat/min
heart rate, change ratio [6]: 9.40 ± 6.30
left intraventricular pressure [6]: 129.15 ± 18.53 mmHg
left intraventricular pressure, change ratio [6]: 0.79 ± 7.76
mean arterial pressure [6]: 91.18 ± 22.76 mmHg
mean arterial pressure, change ratio [6]: 2.06 ± 14.37
change-rate of left intraventricular pressure MAX [7]: 5380.2 ± 913.7 mmHg/s
change-rate of left intraventricular pressure, -MAX [7]: −4246.1 ± 669.3 mm/Hg/s
contractive pressure [7]: 129.06 ± 22.13 mmHg
diastolic pressure [7]: 68.47 ± 11.97 mmHg
heart rate [7]: 329.43 ± 43.77 beat/min
left intraventricular pressure [7]: 128.68 ± 20.18 mmHg
mean arterial pressure [7]: 88.67 ± 14.74 mmHg
effect on the heart rate (in words) (4.5 mg/kg, 9 mg/kg and 18 mg/kg doses): no significant effects
−dp/dt (in words) (9 mg/kg and 18 mg/kg, significant at 60 and 120 min): exhibited a decrease tendency
change-rate of left intraventricular pressure MAX [8]: 5388.9 ± 1187.0 mmHg/s
change-rate of left intraventricular pressure MAX, change ratio [8]: −0.7 ± 6.7
change-rate of left intraventricular pressure, -MAX [8]: −3908.5 ± 1013.0 mm/Hg/s
change-rate of left intraventricular pressure, -MAX, change ratio [8]: 0.0 ± 11.2
contractive pressure [8]: 131.10 ± 24.38 mmHg
contractive pressure, change ratio [8]: −1.14 ± 6.68
diastolic pressure [8]: 68.02 ± 18.77 mmHg
diastolic pressure, change ratio [8]: −2.47 ± 10.80
heart rate [8]: 374.04 ± 47.60 beat/min
heart rate, change ratio [8]: 0.28 ± 7.83
left intraventricular pressure [8]: 128.87 ± 25.63 mmHg
left intraventricular pressure, change ratio [8]: −0.03 ± 8.26
mean arterial pressure [8]: 89.05 ± 20.26 mmHg
mean arterial pressure, change ratio [8]: −1.79 ± 8.69
change-rate of left intraventricular pressure MAX [9]: 5321.6 ± 1133.0 mmHg/s
change-rate of left intraventricular pressure MAX, change ratio [9]: −1.6 ± 7.4
change-rate of left intraventricular pressure, -MAX [9]: −3792.8 ± 979.5 mm/Hg/s
change-rate of left intraventricular pressure, -MAX, change ratio [9]: −2.9 ± 10.2
contractive pressure [9]: 127.85 ± 23.92 mmHg
contractive pressure, change ratio [9]: −3.57 ± 7.14
diastolic pressure [9]: 66.18 ± 19.00 mmHg
diastolic pressure, change ratio [9]: −5.33 ± 9.64
heart rate [9]: 374.93 ± 47.51 beat/min
heart rate, change ratio [9]: 0.48 ± 7.36
left intraventricular pressure [9]: 127.06 ± 25.57 mmHg
left intraventricular pressure, change ratio [9]: −1.37 ± 9.10
mean arterial pressure [9]: 86.74 ± 20.25 mmHg
mean arterial pressure, change ratio [9]: −4.42 ± 8.30
change-rate of left intraventricular pressure MAX [10]: 5179.1 ± 1270.9 mmHg/s
change-rate of left intraventricular pressure MAX, change ratio [10]: −5.0 ± 7.8
change-rate of left intraventricular pressure, -MAX [10]: −3696.8 ± 997.3 mm/Hg/s
change-rate of left intraventricular pressure, -MAX, change ratio [10]: −5.5 ± 10.8
contractive pressure [10]: 122.58 ± 23.46 mmHg
contractive pressure, change ratio [10]: −7.38 ± 8.66
diastolic pressure [10]: 62.90 ± 17.46 mmHg
diastolic pressure, change ratio [10]: −9.50 ± 10.75
heart rate [10]: 361.94 ± 43.56 beat/min
heart rate, change ratio [10]: −3.00 ± 5.83
left intraventricular pressure [10]: 123.59 ± 25.06 mmHg
left intraventricular pressure, change ratio [10]: −4.07 ± 8.57
mean arterial pressure [10]: 82.79 ± 18.98 mmHg
mean arterial pressure, change ratio [10]: −8.42 ± 9.56
change-rate of left intraventricular pressure MAX [11]: 4966.9 ± 1297.4 mmHg/s
change-rate of left intraventricular pressure MAX, change ratio [11]: −9.2 ± 10.0
change-rate of left intraventricular pressure, -MAX [11]: −3569.5 ± 857.8 mm/Hg/s
change-rate of left intraventricular pressure, -MAX, change ratio [11]: −8.3 ± 10.2
contractive pressure [11]: 115.46 ± 23.90 mmHg
